{"source": "patent US7575930B2", "about": "“Method for analyzing oligosaccharides from blood plasma” (priority 2005, dated 2009)", "key": {"[1]": {"assay": "Monitoring of the plasma concentration of the main oligosaccharides of a VLMWH in human volunteers (plasma filtration + anion-exchange HPLC)", "type": "in vivo", "method": "(§1) A plasma sample with a volume of between 100 and 1000 μl is withdrawn and, if appropriate, the internal standard is added to the latter.\n(§2) After homogenization, the resulting solution is introduced into a 30 kD Ultrafree 05 ultrafiltration cartridge (Millipore) rinsed beforehand with 250 μl of water by centrifuging at 10 000 rev/min for 5 minutes. The plasma is introduced into the upper part of the cartridge once or twice, if the amounts to be filtered are greater than 500 μl.\n(§3) The cartridge is centrifuged at 10 000 rev/min for between 1 and 2 hours and then the filtrate is withdrawn. If appropriate, the second part of the plasma to be filtered is introduced into the upper part of the cartridge and the latter is again centrifuged. The exact amount of plasma introduced will have been weighed. The cartridge is centrifuged until the protein residue in the upper part of the cartridge represents no more than approximately 10% of the initial part.\n(§4) The filtrate is withdrawn and 210 μl of 3M KCl per ml of plasma filtered are added to the concentrate.\n(§5) After homogenization, the cartridge is centrifuged at 10 000 rev/min for between 1 and 4 hours. The cartridge is centrifuged until the protein residue in the upper part of the cartridge represents no more than approximately 10% of the initial part.\n(§6) The second filtrate is withdrawn and 210 μl of 3M KCl per ml of plasma filtered are added a second time to the concentrate.\n(§7) The third filtrate is withdrawn and 250 μl of water per ml of plasma filtered are added.\n(§8) The filtrates are combined and diluted 5 fold in water, and the whole is injected directly in anion-exchange HPLC. Immediately before injection, the pH of the injected solution is adjusted to 3 by addition of 1N HCl.\n(§9) The filtered plasma is analyzed by anion-exchange HPLC.\n(§10) The columns used are IonPAc As11 columns (Dionex), with a length of 25 cm and an internal diameter of 2 mm. The detector used is a UV spectrophotometer equipped with an array of diodes.\n(§11) The whole of the […] is injected after adjustment of the pH to 3 by addition of N HCl. The flow rate chosen is 0.22 ml/min; the column temperature is 40° C.\n(§12) Elution is carried out in gradient mode. The two solutions used are:\n(§13) Solvent A: NaH2PO4 2.5 mM, brought to pH 2.9 by addition of H3PO4\n(§14) Solvent B: NaClO4 1N, NaH2PO4 2.5 mM, brought to pH 3.0 by addition of H3PO4\n(§15) The elution gradient is as follows:\n(§16) T=0 min: % B=3; T=40 min: % B=60; T=60 min: % B=80\nA VLMWH with an average molecular weight of 2500 Da is administered at the target dose of 1.4 mg/kg to human volunteers. Blood samples are withdrawn at the times 0, 0.25 h, 0.5 h, 0.75 h, 1 h, 1.25 h, 1.5 h, 2 h, 2.5 h, 3 h, 3.5 h, 4 h, 4.5 h, 5 h, 6 h, 7 h, 8 h, 9 h, 10 h, 12 h, 14 h and 24 h after administration.\nAs the VLMWH used is a complex mixture of oligosaccharides, the study was limited to certain components chosen from this mixture."}, "[2]": {"assay": "Monitoring of the plasma concentration of 3 octasaccharides in beagle dogs after subcutaneous administration (plasma filtration + anion-exchange HPLC)", "type": "in vivo, male dogs of the beagle breed", "settings": "0.5 mg/kg each", "method": "as §1, §2, §3, §4, §5, §6, §7, §8, §9, §10, §11, §12, §13, §14, §15, §16\nThe evolution of a mixture of three octasaccharides in the blood of male dogs of the beagle breed is monitored. These 3 octasaccharides, symbolized ΔIIaIIsIsIs, ΔIsIIaIIsIs and ΔIIaIIsIsIs^1,6-anhydro, are the main affinity octasaccharides of the octasaccharide fractions of Lovenox®.\nThe mixture is administered subcutaneously to 3 male dogs of the beagle breed at a target dose with regard to each of these 3 constituents of 0.5 mg/kg. The administration solution is a 0.9% NaCl solution of the mixture of the 3 octasaccharides at the target concentration of 0.5 mg/ml. Blood samples of 5 ml are withdrawn at the times 0, 0.25 h, 0.5 h, 1 h, 2 h, 4 h, 6 h, 8 h, 24 h, 30 h and 48 h after administration. The blood samples withdrawn are collected in tubes containing 400 μl of a CTAD (citrate, theophylline, adenosine, dipyridamole) mixture. After homogenization, the solution is centrifuged at 3000 g at 15° C. for 15 min. The plasma supernatant is recovered and stored at −20° C. until use.\nFor the treatment of the plasma before HPLC injection, approximately 1 ml of plasma is withdrawn and weighed, to which 50 μl of a solution of the internal standard at a concentration of approximately 0.02 g/l are added.\nThe internal standard is chosen so that it is structurally as close as possible to the products to be analyzed. Its structure is given below.\nThe tetrasaccharide used makes it possible to correct the potentional influence of the variations in the extraction yield.\nThe plasma is treated and analyzed by HPLC."}, "ATIII": {"target": "ATIII (Homo sapiens, UniProt P01008)", "sequence (P01008 33-464, species assumed)": "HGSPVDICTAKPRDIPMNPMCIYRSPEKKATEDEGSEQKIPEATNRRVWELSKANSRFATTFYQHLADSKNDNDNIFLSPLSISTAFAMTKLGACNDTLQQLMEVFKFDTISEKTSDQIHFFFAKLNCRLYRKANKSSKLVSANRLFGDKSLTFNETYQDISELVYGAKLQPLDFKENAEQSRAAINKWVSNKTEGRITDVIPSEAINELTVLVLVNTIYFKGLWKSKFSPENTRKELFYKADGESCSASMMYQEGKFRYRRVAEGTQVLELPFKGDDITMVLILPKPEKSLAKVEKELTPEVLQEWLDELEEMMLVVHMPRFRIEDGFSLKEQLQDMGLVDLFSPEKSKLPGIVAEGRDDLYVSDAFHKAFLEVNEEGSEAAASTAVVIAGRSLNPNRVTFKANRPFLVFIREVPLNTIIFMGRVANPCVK", "assay": "Affinity for ATIII", "type": "binding"}}, "data": [{"smiles": "CC(=O)NC1C(OC2C(C(=O)O)OC(OC3C(COS(=O)(=O)O)OC(OC4C(C(=O)O)OC(OC5C(COS(=O)(=O)O)OC(OC6C(C(=O)O)OC(OC7C(COS(=O)(=O)O)OC(O)C(NS(=O)(=O)O)C7O)C(OS(=O)(=O)O)C6O)C(NS(=O)(=O)O)C5O)C(OS(=O)(=O)O)C4O)C(NS(=O)(=O)O)C3OS(=O)(=O)O)C(O)C2O)OC(COS(=O)(=O)O)C(OC2OC(C(=O)O)=CC(O)C2O)C1O", "note": "(centres unmarked) [ΔIIaIIsIsIs]", "values": [{"measurement": "plasma concentration", "setting": "[1]; 0 h after administration of VLMWH (2500 Da) 1.4 mg/kg", "result": 0, "unit": "nM"}, {"measurement": "plasma concentration", "setting": "[1]; 0.25 h after administration of VLMWH (2500 Da) 1.4 mg/kg", "result": 10, "unit": "nM"}, {"measurement": "plasma concentration", "setting": "[1]; 0.5 h after administration of VLMWH (2500 Da) 1.4 mg/kg", "result": 30, "unit": "nM"}, {"measurement": "plasma concentration", "setting": "[1]; 0.75 h after administration of VLMWH (2500 Da) 1.4 mg/kg", "result": 20, "unit": "nM"}, {"measurement": "plasma concentration", "setting": "[1]; 1 h after administration of VLMWH (2500 Da) 1.4 mg/kg", "result": 30, "unit": "nM"}, {"measurement": "plasma concentration", "setting": "[1]; 1.25 h after administration of VLMWH (2500 Da) 1.4 mg/kg", "result": 40, "unit": "nM"}, {"measurement": "plasma concentration", "setting": "[1]; 1.5 h after administration of VLMWH (2500 Da) 1.4 mg/kg", "result": 40, "unit": "nM"}, {"measurement": "plasma concentration", "setting": "[1]; 2 h after administration of VLMWH (2500 Da) 1.4 mg/kg", "result": 40, "unit": "nM"}, {"measurement": "plasma concentration", "setting": "[1]; 2.5 h after administration of VLMWH (2500 Da) 1.4 mg/kg", "result": 30, "unit": "nM"}, {"measurement": "plasma concentration", "setting": "[1]; 3 h after administration of VLMWH (2500 Da) 1.4 mg/kg", "result": 30, "unit": "nM"}, {"measurement": "plasma concentration", "setting": "[1]; 3.5 h after administration of VLMWH (2500 Da) 1.4 mg/kg", "result": 40, "unit": "nM"}, {"measurement": "plasma concentration", "setting": "[1]; 4 h after administration of VLMWH (2500 Da) 1.4 mg/kg", "result": 20, "unit": "nM"}, {"measurement": "plasma concentration", "setting": "[1]; 4.5 h after administration of VLMWH (2500 Da) 1.4 mg/kg", "result": 40, "unit": "nM"}, {"measurement": "plasma concentration", "setting": "[1]; 5 h after administration of VLMWH (2500 Da) 1.4 mg/kg", "result": 30, "unit": "nM"}, {"measurement": "plasma concentration", "setting": "[1]; 6 h after administration of VLMWH (2500 Da) 1.4 mg/kg", "result": 20, "unit": "nM"}, {"measurement": "plasma concentration", "setting": "[1]; 7 h after administration of VLMWH (2500 Da) 1.4 mg/kg", "result": 40, "unit": "nM"}, {"measurement": "plasma concentration", "setting": "[1]; 8 h after administration of VLMWH (2500 Da) 1.4 mg/kg", "result": 20, "unit": "nM"}, {"measurement": "plasma concentration", "setting": "[1]; 9 h after administration of VLMWH (2500 Da) 1.4 mg/kg", "result": 20, "unit": "nM"}, {"measurement": "plasma concentration", "setting": "[1]; 10 h after administration of VLMWH (2500 Da) 1.4 mg/kg", "result": 20, "unit": "nM"}, {"measurement": "plasma concentration", "setting": "[1]; 12 h after administration of VLMWH (2500 Da) 1.4 mg/kg", "result": 30, "unit": "nM"}, {"measurement": "plasma concentration", "setting": "[1]; 14 h after administration of VLMWH (2500 Da) 1.4 mg/kg", "result": 20, "unit": "nM"}, {"measurement": "plasma concentration", "setting": "[1]; 24 h after administration of VLMWH (2500 Da) 1.4 mg/kg", "result": 10, "unit": "nM"}, {"measurement": "plasma concentration", "setting": "[2]; Dog 1, 0 h after subcutaneous administration", "result": 0, "unit": "nM"}, {"measurement": "plasma concentration", "setting": "[2]; Dog 1, 0.25 h after subcutaneous administration", "result": 40, "unit": "nM"}, {"measurement": "plasma concentration", "setting": "[2]; Dog 1, 0.5 h after subcutaneous administration", "result": 180, "unit": "nM"}, {"measurement": "plasma concentration", "setting": "[2]; Dog 1, 1 h after subcutaneous administration", "result": 330, "unit": "nM"}, {"measurement": "plasma concentration", "setting": "[2]; Dog 1, 2 h after subcutaneous administration", "result": 590, "unit": "nM"}, {"measurement": "plasma concentration", "setting": "[2]; Dog 1, 4 h after subcutaneous administration", "result": 470, "unit": "nM"}, {"measurement": "plasma concentration", "setting": "[2]; Dog 1, 6 h after subcutaneous administration", "result": 360, "unit": "nM"}, {"measurement": "plasma concentration", "setting": "[2]; Dog 1, 8 h after subcutaneous administration", "result": 280, "unit": "nM"}, {"measurement": "plasma concentration", "setting": "[2]; Dog 1, 24 h after subcutaneous administration", "result": 40, "unit": "nM"}, {"measurement": "plasma concentration", "setting": "[2]; Dog 1, 30 h after subcutaneous administration", "result": 20, "unit": "nM"}, {"measurement": "plasma concentration", "setting": "[2]; Dog 1, 48 h after subcutaneous administration", "result": 0, "unit": "nM"}, {"measurement": "plasma concentration", "setting": "[2]; Dog 2, 0 h after subcutaneous administration", "result": 0, "unit": "nM"}, {"measurement": "plasma concentration", "setting": "[2]; Dog 2, 0.25 h after subcutaneous administration", "result": 50, "unit": "nM"}, {"measurement": "plasma concentration", "setting": "[2]; Dog 2, 0.5 h after subcutaneous administration", "result": 100, "unit": "nM"}, {"measurement": "plasma concentration", "setting": "[2]; Dog 2, 1 h after subcutaneous administration", "result": 200, "unit": "nM"}, {"measurement": "plasma concentration", "setting": "[2]; Dog 2, 2 h after subcutaneous administration", "result": 320, "unit": "nM"}, {"measurement": "plasma concentration", "setting": "[2]; Dog 2, 4 h after subcutaneous administration", "result": 300, "unit": "nM"}, {"measurement": "plasma concentration", "setting": "[2]; Dog 2, 6 h after subcutaneous administration", "result": 370, "unit": "nM"}, {"measurement": "plasma concentration", "setting": "[2]; Dog 2, 8 h after subcutaneous administration", "result": 260, "unit": "nM"}, {"measurement": "plasma concentration", "setting": "[2]; Dog 2, 24 h after subcutaneous administration", "result": 40, "unit": "nM"}, {"measurement": "plasma concentration", "setting": "[2]; Dog 2, 30 h after subcutaneous administration", "result": 10, "unit": "nM"}, {"measurement": "plasma concentration", "setting": "[2]; Dog 2, 48 h after subcutaneous administration", "result": 0, "unit": "nM"}, {"measurement": "plasma concentration", "setting": "[2]; Dog 3, 0 h after subcutaneous administration", "result": 0, "unit": "nM"}, {"measurement": "plasma concentration", "setting": "[2]; Dog 3, 0.25 h after subcutaneous administration", "result": 60, "unit": "nM"}, {"measurement": "plasma concentration", "setting": "[2]; Dog 3, 0.5 h after subcutaneous administration", "result": 170, "unit": "nM"}, {"measurement": "plasma concentration", "setting": "[2]; Dog 3, 1 h after subcutaneous administration", "result": 240, "unit": "nM"}, {"measurement": "plasma concentration", "setting": "[2]; Dog 3, 2 h after subcutaneous administration", "result": 330, "unit": "nM"}, {"measurement": "plasma concentration", "setting": "[2]; Dog 3, 4 h after subcutaneous administration", "result": 450, "unit": "nM"}, {"measurement": "plasma concentration", "setting": "[2]; Dog 3, 6 h after subcutaneous administration", "result": 360, "unit": "nM"}, {"measurement": "plasma concentration", "setting": "[2]; Dog 3, 8 h after subcutaneous administration", "result": 290, "unit": "nM"}, {"measurement": "plasma concentration", "setting": "[2]; Dog 3, 24 h after subcutaneous administration", "result": 40, "unit": "nM"}, {"measurement": "plasma concentration", "setting": "[2]; Dog 3, 30 h after subcutaneous administration", "result": 20, "unit": "nM"}, {"measurement": "plasma concentration", "setting": "[2]; Dog 3, 48 h after subcutaneous administration", "result": 0, "unit": "nM"}, {"measurement": "affinity for ATIII", "setting": "ATIII", "result": "high affinity for ATIII"}]}]}
